A word on the pIC50: it is −log10 of the IC50, conventionally taken in molar units.

Experimental findings from US20240182503A1, “MACROCYCLE COMPLEMENT FACTOR B INHIBITORS” (priority 2021, published 2024) are described below.

pIC50: −log10 of the molar value.

In the first assay the target is CVF-Bb complex (Homo sapiens (Human), UniProt P00751). In words: biochemical. It counts as biochemical.
Conditions: not given
On the procedure: CVF-Bb complex, prepared from purified cobra venom factor, (3 nM) is incubated with a compound of the disclosure at various concentrations for 10 minutes at room temperature in PBS (pH 7.4) containing 10 mM MgCl2 and 0.05% (w/v) CHAPS. Human Complement C3 substrate is added to a final concentration of 1 μM. After 1 hour incubation at room temperature, the enzyme reaction is stopped by addition of a cocktail of concentrated pan-protease inhibitors. The product of the reaction, C3a, is quantified by means of an enzyme-linked-immunosorbent assay and/or denaturing gel electrophoresis (SDS-PAGE). IC50 values are calculated from percentage of inhibition of CVF-Bb activity as a function of test compound concentration.
As to `COc1cc(C)c2[nH]ccc2c1CN1CC[C@@H]2C[C@@H]1c1ccc(C(=O)O)cc1OCC/C=C\CO2` [Ex. 42, (1^2R,1^4R,Z)-1^1-((5-methoxy-7-methyl-1H-indol-4-yl)methyl)-3,9-dioxa-1(2,4)-piperidina-2(1,2)-benzenacyclononaphan-6-ene-2^4-carboxylic acid], the pIC50 was 5.97.
The same measure, in the same setting: as for `CCO[C@H]1CCN(Cc2c(OC)cc(C)c3[nH]ccc23)[C@H](c2ccc(C(=O)NS(=O)(=O)CC)cc2)C1` [Ex. 44, 4-((2S,4S)-4-ethoxy-1-((5-methoxy-7-methyl-1H-indol-4-yl)methyl)piperidin-2-yl)-N-(ethylsulfonyl)benzamide], the figure is 6.86.
Same read-out and setting: as for `COc1cc(C)c2[nH]ccc2c1CN1CC[C@H]2C[C@H]1c1ccc(C(=O)NS(=O)(=O)C3(C)CC3)cc1OCCCCCCO2` [Ex. 46], the figure is 6.51; as for `COc1cc(C)c2[nH]ccc2c1CN1CC[C@H]2C[C@H]1c1ccc(C(=O)NS(=O)(=O)C(C)C)cc1OCCCCCCO2` [Ex. 47, (1^2S,1^4S)-N-(isopropylsulfonyl)-11-((5-methoxy-7-methyl-1H-indol-4-yl)methyl)-3,10-dioxa-1(2,4)-piperidina-2(1,2)-benzenacyclodecaphane-2^4-carboxamide], 6.19.

Staying with this assay, now noted: inhibition of CVF-Bb activity (3 nM CVF-Bb, Human Complement C3 substrate 1 μM, C3a quantified), PBS pH 7.4; read-out: IC50.
As to `COc1cc(C)c2[nH]ccc2c1CN1CC[C@H]2C[C@H]1c1ccc(C(=O)NS(C)(=O)=O)c3ccc(cc13)OCCC/C=C/CO2` [Ex. 54, (1^2S,1^4S,E)-1^1-((5-methoxy-7-methyl-1H-indol-4-yl)methyl)-N-(methylsulfonyl)-3,10-dioxa-1(2,4)-piperidina-2(1,7)-naphthalenacyclodecaphan-7-ene-2^4-carboxamide], the negative-log IC50 (pIC50) is 6.52.

The assay is the same for the next values; noted with them: read-out: IC50.
Regarding `COc1cc(C)c2[nH]ccc2c1CN1CC[C@H]2C[C@H]1c1ccc(C(=O)O)c3ccc(cc13)OCCC/C=C/CO2` [Ex. 48, (1^2S,1^4S,E)-1^1-((5-methoxy-7-methyl-1H-indol-4-yl)methyl)-3,10-dioxa-1(2,4)-piperidina-2(1,7)-naphthalenacyclodecaphan-7-ene-2^4-carboxylic acid], the pIC50 is 7.08.
Same read-out and setting: as for `COc1cc(C)c2[nH]ccc2c1CN1CC[C@H]2C[C@H]1c1ccc(C(=O)O)c3ccc(cc13)OCCCCCCO2` [Ex. 49, (1^2S,14S)-1^1-((5-methoxy-7-methyl-1H-indol-4-yl)methyl)-3,10-dioxa-1(2,4)-piperidina-2(1,7)-naphthalenacyclodecaphane-2^4-carboxylic acid], the figure is 6.68; as for `COc1cc(C)c2[nH]ccc2c1CN1CC[C@H]2C[C@H]1c1ccc(C(=O)NS(=O)(=O)C3CC3)cc1OCCCCCCO2` [Ex. 50, (12S,14S)—N-(cyclopropylsulfonyl)-11-((5-methoxy-7-methyl-1H-indol-4-yl)methyl)-3,10-dioxa-1(2,4)-piperidina-2(1,2)-benzenacyclodecaphane-24-carboxamide], < 5.00.
Same read-out and setting: then `COc1cc(C)c2c(ccn2C(=O)OC(C)(C)C)c1CN1CC[C@@H]2C[C@@H]1c1ccc(C(=O)O)c3ccc(cc13)OCCC/C=C/CO2` [Ex. 51, (1^2R,1^4R,E)-1^1-((1-(tert-butoxycarbonyl)-5-methoxy-7-methyl-1H-indol-4-yl)methyl)-3,10-dioxa-1(2,4)-piperidina-2(1,7)-naphthalenacyclodecaphan-7-ene-2^4-carboxylic acid], with < 5.00; and `COc1cc(C)c2[nH]ccc2c1CN1CCC2CC1c1ccc(C(=O)O)c3ccc(cc13)OCCCCCCO2` (stereo not shown) [Ex. 52, (1^2R,1^4R)-1^1-((5-methoxy-7-methyl-1H-indol-4-yl)methyl)-3,10-dioxa-1(2,4)-piperidina-2(1,7)-naphthalenacyclodecaphane-2^4-carboxylic acid], with < 5.00.
On to `COc1cc(C)c2[nH]ccc2c1CN1CC[C@H]2C[C@H]1c1ccc(-c3ccn[nH]3)cc1OCCCCCCO2` [Ex. 55, (1^2S,1^4S)-1^1-((5-methoxy-7-methyl-1H-indol-4-yl)methyl)-2^4-(1H-pyrazol-5-yl)-3,10-dioxa-1(2,4)-piperidina-2(1,2)-benzenacyclodecaphane], for which the pIC50 was 5.54.
Turning to `COc1cc(C)c2[nH]ccc2c1CN1CC[C@H]2C[C@H]1c1ccc(C(=O)NS(C)(=O)=O)c3ccc(cc13)OCCCCCCO2` [Ex. 56, (1^2S,1^4S)-1^1-((5-methoxy-7-methyl-1H-indol-4-yl)methyl)-N-(methylsulfonyl)-3,10-dioxa-1(2,4)-piperidina-2(1,7)-naphthalenacyclodecaphane-2^4-carboxamide], the pIC50 is 6.43.
On to `COc1cc(C)c2[nH]ccc2c1CN1CC[C@H]2C[C@H]1c1ccc(C(=O)NS(=O)(=O)c3ccccc3)cc1OCCCCCCO2` [Ex. 57, (1^2S,1^4S)-1^1-((5-methoxy-7-methyl-1H-indol-4-yl)methyl)-N-(phenylsulfonyl)-3,10-dioxa-1(2,4)-piperidina-2(1,2)-benzenacyclodecaphane-2^4-carboxamide], for which the pIC50 is 6.82.
Still for that read-out and setting: then `COc1cc(C)c2[nH]ccc2c1CN1CC[C@H]2C[C@H]1c1ccc(C(=O)NS(C)(=O)=O)cc1/C=C/CCCCCCO2` [Ex. 58, (1^2S,1^4S, E)-1^1-((5-methoxy-7-methyl-1H-indol-4-yl)methyl)-N-(methylsulfonyl)-11-oxa-1(2,4)-piperidina-2(1,2)-benzenacycloundecaphan-3-ene-2^4-carboxamide], with 5.97; and `CCS(=O)(=O)NC(=O)c1ccc2c(c1)OCCCCCO[C@H]1CCN(Cc3c(OC)cc(C)c4[nH]ccc34)[C@H]2C1` [Ex. 59, (1^2S,1^4S)—N-(ethylsulfonyl)-1^1-((5-methoxy-7-methyl-1H-indol-4-yl)methyl)-3,9-dioxa-1(2,4)-piperidina-2(1,2)-benzenacyclononaphane-2^4-carboxamide], with 6.61; and `COc1cc(C)c2[nH]ccc2c1CN1CC[C@H]2C[C@H]1c1ccc(C(=O)NS(=O)(=O)C3CC3)cc1OCCCCCO2` [Ex. 60, (1^2S,1^4S)—N-(cyclopropylsulfonyl)-1^1-((5-methoxy-7-methyl-1H-indol-4-yl)methyl)-3,9-dioxa-1(2,4)-piperidina-2(1,2)-benzenacyclononaphane-2^4-carboxamide], with 6.64.
As to `COc1cc(C)c2[nH]ccc2c1CN1CC[C@H]2C[C@H]1c1ccc(C(=O)NS(=O)(=O)C3CCCC3)cc1OCCCCCO2` [Ex. 61, (1^2S,1^4S)—N-(cyclopentylsulfonyl)-1^1-((5-methoxy-7-methyl-1H-indol-4-yl)methyl)-3,9-dioxa-1(2,4)-piperidina-2(1,2)-benzenacyclononaphane-2^4-carboxamide], the pIC50 was 6.48.
Turning to `COc1cc(C)c2[nH]ccc2c1CN1CC[C@H]2C[C@H]1c1ccc(C(=O)NS(=O)(=O)C3CCCC3)cc1OCCCCCCO2` [Ex. 62, (1^2S,1^4S)—N-(cyclopentylsulfonyl)-1^1-((5-methoxy-7-methyl-1H-indol-4-yl)methyl)-3,10-dioxa-1(2,4)-piperidina-2(1,2)-benzenacyclodecaphane-2^4-carboxamide], the pIC50 was 6.53.
In the case of `COc1cc(C)c2[nH]ccc2c1CN1CC[C@H]2C[C@H]1c1ccc(C(=O)NO)cc1OCCCCCCO2` [Ex. 63, (1^2S,1^4S)—N-hydroxy-1^1-((5-methoxy-7-methyl-1H-indol-4-yl)methyl)-3,10-dioxa-1(2,4)-piperidina-2(1,2)-benzenacyclodecaphane-2^4-carboxamide], the pIC50 was 5.61.
